Patent publication US11225505B2, “Antimicrobial polymyxin derivative compounds” (MONASH UNIVERSITY, priority 2015, dated 2022)
≈ marks a conversion by molar mass, not a printed value. Where a SMILES comes first, the peptide text is derived from it. Bridges are numbered along the chain shown (N, C = ends). [ ]: non-standard residue; d: D form. The star is where a group is joined. dNle = CCCC[C@@H](N)C(=O)O; dNva = CCC[C@@H](N)C(=O)O; X29 = O=C(c1cc(Cl)ccn1)*; X54 = O=C(c1cccc(Cl)n1)*; Dab = NCC[C@H](N)C(=O)O; Abu = CC[C@H](N)C(=O)O; Dap = NC[C@H](N)C(=O)O

What was measured:
Type in all cases: cell-based
[1] = system: Klebsiella pneumoniae FADDI-KP032; settings: FADDI-KP032
Outline: (§1)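 Broth microdilution, CAMHB, per CLSI M100-S24; lipopeptides as TFA salts; polymyxin B sulphate control. Read-out: MIC. Strains are polymyxin-susceptible; PA022 and AB034 are MDR clinical isolates.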

[2] = system: Enterobacter cloacae FADDI-EC006; settings: FADDI-EC006
Outline: as §1

[3] = system: Klebsiella pneumoniae Kp BM1; settings: Kp BM1
Outline: (§2)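 Lipopeptide TFA salts were serially diluted in cation-adjusted Mueller-Hinton broth, inoculated with polymyxin-susceptible Gram-negative bacteria and scored for MIC according to CLSI guidance (M100-S24). Polymyxin B sulphate was included as comparator.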

[4] = system: Enterobacter cloacae FADDI-EC001; settings: FADDI-EC001
Outline: as §2

[5] = system: Pseudomonas aeruginosa FADDI-PA038; settings: FADDI-PA038
Outline: as §1

[6] = system: Pseudomonas aeruginosa ATCC 27853; settings: ATCC 27853
Outline: as §1

[7] = system: Pseudomonas aeruginosa FADDI-PA022; settings: FADDI-PA022
Outline: as §1

[8] = system: Acinetobacter baumannii ATCC 17978; settings: ATCC 17978
Outline: as §1

[9] = system: Pseudomonas aeruginosa FADDI-PA01; settings: FADDI-
Outline: as §1

[10] = system: Klebsiella pneumoniae FADDI-KP022; settings: FADDI-KP022
Outline: as §1

[11] = system: Enterobacter cloacae FADDI-EC003; settings: FADDI-EC003
Outline: as §1

[12] = system: Acinetobacter baumannii FADDI-AB034; settings: FADDI-AB034
Outline: as §1

[13] = system: Acinetobacter baumannii FADDI-AB030; test: microbe, parasite or virus in culture; settings: FADDI-AB030
Outline: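 Lipopeptide TFA salts tested against the multidrug-resistant clinical isolate by CLSI (M100-S24) broth microdilution in cation-adjusted Mueller-Hinton broth, with polymyxin B sulphate as control; MIC read.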

SMILES	Minimum inhibitory concentration [1]	Minimum inhibitory concentration [2]	Minimum inhibitory concentration [3]	Minimum inhibitory concentration [4]	Minimum inhibitory concentration [5]	Minimum inhibitory concentration [6]	Minimum inhibitory concentration [7]	Minimum inhibitory concentration [8]	Minimum inhibitory concentration [9]	Minimum inhibitory concentration [10]	Minimum inhibitory concentration [11]	Minimum inhibitory concentration [12]	Minimum inhibitory concentration [13]
CC[C@@H]1NC(=O)[C@@H](CC(C)C)NC(=O)[C@H](CCN)NC(=O)[C@@H](NC(=O)[C@H](CN)NC(=O)[C@@H](NC(=O)[C@H](CCN)NC(=O)c2cc(Cl)ccn2)[C@@H](C)O)CCNC(=O)[C@H]([C@@H](C)O)NC(=O)[C@H](CCN)NC(=O)[C@H](CCN)NC1=O [Compound 26] (X29-[Dab]T[Dap][Dab][Dab][dL][Abu][Dab][Dab]T; lactam 4-C)	0.25 µg/mL (≈ 0.222 µM)	2 µg/mL (≈ 1.78 µM)	0.25 µg/mL (≈ 0.222 µM)	0.25 µg/mL (≈ 0.222 µM)	0.5 µg/mL (≈ 0.444 µM)	0.25 µg/mL (≈ 0.222 µM)	0.25 µg/mL (≈ 0.222 µM)	0.5 µg/mL (≈ 0.444 µM)	0.25 µg/mL (≈ 0.222 µM)	<0.125 µg/mL	<0.125 µg/mL	0.5 µg/mL (≈ 0.444 µM)	0.5 µg/mL (≈ 0.444 µM)
CCC[C@H]1NC(=O)[C@H](CCN)NC(=O)[C@@H](NC(=O)[C@H](CN)NC(=O)[C@@H](NC(=O)[C@H](CCN)NC(=O)c2cc(Cl)ccn2)[C@@H](C)O)CCNC(=O)[C@H]([C@@H](C)O)NC(=O)[C@H](CCN)NC(=O)[C@H](CCN)NC(=O)[C@H](CC)NC1=O [Compound 96] (X29-[Dab]T[Dap][Dab][Dab][dNva][Abu][Dab][Dab]T; lactam 4-C)	0.5 µg/mL (≈ 0.449 µM)	0.5 µg/mL (≈ 0.449 µM)	1 µg/mL (≈ 0.899 µM)	0.25 µg/mL (≈ 0.225 µM)	1 µg/mL (≈ 0.899 µM)	0.25 µg/mL (≈ 0.225 µM)	0.25 µg/mL (≈ 0.225 µM)	1 µg/mL (≈ 0.899 µM)	0.25 µg/mL (≈ 0.225 µM)	0.25 µg/mL (≈ 0.225 µM)	0.5 µg/mL (≈ 0.449 µM)	1 µg/mL (≈ 0.899 µM)	2 µg/mL (≈ 1.8 µM)
CCCC[C@H]1NC(=O)[C@H](CCN)NC(=O)[C@@H](NC(=O)[C@H](CN)NC(=O)[C@@H](NC(=O)[C@H](CCN)NC(=O)c2cc(Cl)ccn2)[C@@H](C)O)CCNC(=O)[C@H]([C@@H](C)O)NC(=O)[C@H](CCN)NC(=O)[C@H](CCN)NC(=O)[C@H](CC)NC1=O [Compound 95] (X29-[Dab]T[Dap][Dab][Dab][dNle][Abu][Dab][Dab]T; lactam 4-C)	<0.125 µg/mL	<0.125 µg/mL	0.5 µg/mL (≈ 0.444 µM)	<0.125 µg/mL	1 µg/mL (≈ 0.888 µM)	0.25 µg/mL (≈ 0.222 µM)	0.25 µg/mL (≈ 0.222 µM)	0.25 µg/mL (≈ 0.222 µM)	<0.125 µg/mL	0.25 µg/mL (≈ 0.222 µM)	0.25 µg/mL (≈ 0.222 µM)	0.25 µg/mL (≈ 0.222 µM)	0.25 µg/mL (≈ 0.222 µM)
CC[C@@H]1NC(=O)[C@@H](CC(C)C)NC(=O)[C@H](CCN)NC(=O)[C@@H](NC(=O)[C@H](CN)NC(=O)[C@@H](NC(=O)[C@H](CCN)NC(=O)c2cccc(Cl)n2)[C@@H](C)O)CCNC(=O)[C@H]([C@@H](C)O)NC(=O)[C@H](CCN)NC(=O)[C@H](CCN)NC1=O [Compound 43] (X54-[Dab]T[Dap][Dab][Dab][dL][Abu][Dab][Dab]T; lactam 4-C)	0.25 µg/mL (≈ 0.222 µM)	0.5 µg/mL (≈ 0.444 µM)	0.25 µg/mL (≈ 0.222 µM)	<0.125 µg/mL	1 µg/mL (≈ 0.888 µM)	0.25 µg/mL (≈ 0.222 µM)	0.25 µg/mL (≈ 0.222 µM)	4 µg/mL (≈ 3.55 µM)	0.25 µg/mL (≈ 0.222 µM)	<0.125 µg/mL	0.25 µg/mL (≈ 0.222 µM)	4 µg/mL (≈ 3.55 µM)	4 µg/mL (≈ 3.55 µM)
